The structures appear in SMILES notation. Values joined by “and” are separate entries in the source; they are usually repeats but may differ in a detail not shown here. Equal entries are not always repeated.

`O=C(CCCl)c1ccc(F)cc1` [3-chloro-4'-fluoropropiophenone] showed a melting point of 48 °C. With `O=C(O)c1ccc([N+](=O)[O-])o1` [5-nitro-2-furoic acid], the melting point amounted to 187 °C. `CC(CCC(=O)O)C1CCC2C3CCC4CC(=O)CCC4(C)C3CC(O)C12C` (centres undefined) [12-hydroxy-3-oxocholan-24-oic acid] showed a melting point of 108 °C. Turning to `O=C(O)CCc1ccc(B(O)O)cc1` [4-(2-carboxyethyl)benzeneboronic acid], the melting point stood at 147 °C. In turn, `C=C1N(C(C)=O)c2ccccc2C1(C)C(=O)OC` (centres undefined) registered a melting point of 60 °C. The compound `C1CO1` [Oxirane] yielded a melting point of -111 °C. The compound `CS(=O)(=O)c1ccc(B(O)O)cc1` [4-(methylsulfonyl)benzeneboronic acid] gave a melting point of 200 °C. Take `O=C1NN(c2ccccc2)C(=O)C1c1ccccc1` (centres undefined) [phenopyrazone]: the melting point was found to be 233 °C. As for `CC1=CC(=O)CC(C)(C)C1` [isophorone], the melting point is -8 °C. As to `c1ccc(Oc2cccc(-c3nnn[nH]3)c2)cc1` [5-(3-phenoxyphenyl)-1h-tetrazole], the melting point turned out to be 153 °C.

`COc1ccc(-c2oc3c(OC)c(OC)ccc3c(=O)c2O)cc1` [3-hydroxy-4',7,8-trimethoxyflavone] gave a melting point of 198 °C. On to `COc1ccc(N/N=C(\C#N)c2nc(-c3ccc(C)cc3)cs2)cc1`, for which the melting point was 146 °C.

Compound `Cc1cc(Cl)ccc1B(O)O` [4-chloro-2-methylbenzeneboronic acid] returned a melting point of 194 °C. `FC(F)(F)c1ccccc1` [(Trifluoromethyl)benzene] returned a melting point of -27 °C. The compound `Clc1ccc(C(c2ccccc2Cl)C(Cl)(Cl)Cl)cc1` (centres undefined) [o,p'-DDT] had a melting point of 75 °C. In the case of `Brc1cccc2ccccc12` [1-bromonaphthalene], the melting point is -1 °C. As to `COc1cc(CNC(=O)CCCC/C=C/C(C)C)ccc1O` [(6E)-N-(4-Hydroxy-3-methoxybenzyl)-8-methylnon-6-enamide], the melting point was determined as 66 °C. The same measure for `N#Cc1c2ccccc2cc2ccccc12` [anthracene-9-carbonitrile]: 177 °C. The compound `O=[N+]([O-])c1cc(Cl)ccc1O` [2-Nitro-4-chlorophenol] displayed a melting point of 89 °C. Turning to `N#C/C(=C\c1ccc(Cl)cc1Cl)c1nc(-c2cccc3ccccc23)cs1`, the melting point turned out to be 133 °C. In turn, `CC(=O)[C@H]1CC[C@H]2[C@@H]3CCC4=CC(=O)CC[C@]4(C)[C@H]3CC[C@]12C` [Progesterone] came in with a melting point of 121 °C.

`CCCCCCCCOc1ccc(C(=O)O)cc1` [4-n-octyloxybenzoic acid] displayed a melting point of 103 °C. `CCCCCC(=O)OC(=O)CCCCC` [hexanoic anhydride]: the melting point was -40 °C. The compound `CCOC(=O)c1ccc(O)cc1` [Ethyl 4-hydroxybenzoate] gave a melting point of 117 °C.

Consider `CCC1C2=C(OC(=O)C1(C)C)c1ccc(OC)cc1CC2` (centres undefined), for which the melting point is 143 °C. The result for `CC(C)(C)c1cnc(C(=O)Nc2cccc(Br)c2)cn1` [N-(3-bromophenyl)-5-tert-butylpyrazine-2-carboxamide] reads 114 °C; that for `O=[N+]([O-])c1ccc(Cl)c(Cl)c1` [3,4-Dichloronitrobenzene], 41.3 °C. Take `Cc1cc(C)c(CSCc2c(C)cc(C)cc2C)c(C)c1` [1,1'-(sulfanediyldimethanediyl)bis(2,4,6-trimethylbenzene)]: the melting point amounted to 146 °C.

The compound `O=C(O)c1ccccc1C(=O)O` [phthalic acid] had a melting point of 230 °C. The same measure for `Cc1cc(O)ccc1Cl` [4-Chloro-3-methylphenol]: 67 °C.

For the compound `C=CCc1ccccc1C(=O)O` [2-prop-2-en-1-ylbenzoic acid], the melting point came out at 84 °C. The result for `O=C(O)c1ccc2cc(O)ccc2c1` [6-hydroxy-2-naphthoic acid] reads 249 °C; that for `COS(=O)(=O)c1ccc(C)cc1` [methyl p-toluenesulfonate], 26 °C. `COC(=O)CC(C)CCC1C(C)(O)CCC2C(C)(C)CCCC21C` (centres undefined) came in with a melting point of 70 °C. With `Brc1ccnc(-c2ccc(Br)nc2)c1` [4,6'-dibromo-2,3'-bipyridine], the melting point was 129 °C.

For the compound `Cc1cccc(Cl)c1` [3-chlorotoluene], the melting point was -48 °C. The result for `O=C1/C(=N/Nc2cccc([N+](=O)[O-])c2)C(C(F)(F)F)=NN1c1ccccc1` reads 151 °C. In turn, `CN1CCN(C2CCNCC2)CC1` [1-methyl-4-(4-piperidinyl)piperazine] yielded a melting point of 55 °C.

`O=C(O)CS(=O)(=O)c1ccccc1` [(phenylsulfonyl)acetic acid] came in with a melting point of 112 °C.

`ClC(Cl)=C(Cl)c1c(Cl)c(Cl)c(Cl)c(Cl)c1Cl` [Octachlorostyrene] gave a melting point of 95 °C.

The compound `Nc1ncccc1O` [2-amino-3-hydroxypyridine] gave a melting point of 170 °C. `NC(=O)c1ccccc1OC(F)(F)F` [2-(trifluoromethoxy)benzamide]: the melting point came to 154 °C. The result for `CS(=O)(=O)c1cccs1` [2-(methylsulfonyl)thiophene] reads 48 °C; that for `CC(Br)CBr` (centres undefined) [1,2-dibromopropane], -55 °C.

Compound `O=C(Cl)c1ccc([N+](=O)[O-])cc1` [4-nitrobenzoyl chloride] came in with a melting point of 73 °C. As to `O=C2\C=C(/N(N2c1ccccc1)C)C` [antipyrine], the melting point was 111 °C and 112 °C and 109 °C. On to `CC(C)(C)C=O` [trimethylacetaldehyde], for which the melting point came to 6 °C.

For the compound `CCNc1nsc2ccccc12` [etisazol], the melting point was 78 °C. The same measure for `N#CCC#N` [malononitrile]: 34 °C; for `SCCS` [Ethane-1,2-dithiol]: -41 °C; for `O=C(O)CCN1C(=O)COc2ccc(Cl)cc21`: 148 °C. `Nc1c(Br)cc(Br)c(Cl)c1Cl` [4,6-dibromo-2,3-dichloroaniline] showed a melting point of 97 °C. In the case of `COC(=O)c1cccc(OC(C)=O)c1` [methyl_3-acetoxybenzoate], the melting point came out at 29 °C. Compound `COC(=O)c1ccc(C(=O)OC)cc1` [Dimethyl terephthalate] showed a melting point of 141 °C. The same measure for `O=P1(NCCCl)OCCCN1CCCl` (centres undefined) [Ifosfamide]: 40 °C; for `NS(=O)(=O)c1cccc(Br)c1` [3-bromobenzenesulfonamide]: 156 °C; for `CCCOC(=O)c1ccc(O)cc1` [Propyl 4-hydroxybenzoate]: 96.5 °C.

`O=C1CC(c2cccc(O)c2)Oc2ccccc21` (centres undefined) [3'-hydroxyflavanone] displayed a melting point of 140 °C.

On to `C#CC(C)(O)c1ccccc1` (centres undefined) [2-phenyl-3-butyn-2-ol], for which the melting point is 49 °C. In turn, `CCOC(=O)/C(C#N)=C\c1ccc(-c2ccccc2OC)o1` [Ethyl (2Z)-2-cyano-3-[5-(2-methoxyphenyl)-2-furyl]acrylate] showed a melting point of 121 °C. The compound `NC(=O)c1ccccc1` [Benzamide] showed a melting point of 127 °C. As to `CCCCC(C)CC(O)C=CC1C(O)CC(=O)C1CCCCC=CC(=O)O` (centres undefined), the melting point is 97 °C. On to `c1ccc(Cc2ccccc2)cc1` [diphenylmethane], for which the melting point was determined as 90.5 °C. For the compound `O=[N+]([O-])c1ccc(O)c2ncccc12` [8-hydroxy-5-nitroquinoline], the melting point amounted to 180 °C.

The compound `CCCCOC(=O)c1ccc(N)cc1` [butyl p-aminobenzoate] gave a melting point of 58 °C. Take `CC1=NN(c2ccccc2)C(=O)/C1=C/c1ccccc1O`: the melting point worked out at 154 °C.

The compound `C1COCCN1` [morpholine] displayed a melting point of -5 °C.

In turn, `OCc1ccc(F)c(B(O)O)c1` [2-fluoro-5-(hydroxymethyl)benzeneboronic acid] had a melting point of 71 °C.

Regarding `O=[N+]([O-])c1cccc(N=C=S)c1` [3-nitrophenyl isothiocyanate], the melting point stood at 57 °C. Regarding `CCN(CC)CCNc1ccc(CO)c2sc3ccccc3c(=O)c12` [hycanthone], the melting point stood at 101 °C.

Compound `C[C@@H](NC(=O)OC(C)(C)C)C(=O)O` [N-boc-D-alanine] showed a melting point of 83 °C. Regarding `O=C(NC(CO)C(=O)O)OCc1ccccc1` (centres undefined) [N-carbobenzoxy-serine], the melting point came out at 111 °C. `CC[SiH](CC)CC` [triethylsilane] registered a melting point of -157 °C. `CC(=O)NS(=O)(=O)c1ccc(N)cc1` [sulfacetamide] yielded a melting point of 182 °C. In the case of `ClCCOCCCl` [bis(2-chloroethyl) ether], the melting point was -50 °C. Regarding `Oc1ccccc1` [phenol], the melting point worked out at 41 °C.

In the case of `OC[C@@H](O)[C@@H](O)[C@@H](O)CO` [D-Ribitol], the melting point was 102 °C. `CC(C)Cc1ccc(C(C)C(=O)O)cc1` (centres undefined) [Ibumetin] had a melting point of 75 °C. The result for `CN(C)c1ccc(C(C(=O)NC(C)(C)C)N(C)C(=O)CCCc2ccc3ccc4cccc5ccc2c3c45)cc1` (centres undefined) [Ugi product 171K (UC)] reads 194 °C; that for `CCCN(CCC)S(=O)(=O)c1ccc(C(=O)O)cc1` [Probenecid], 195 °C. The result for `O=C(O)CCCCCCC(=O)O` [suberic acid] reads 143 °C; that for `CCOC(=O)c1ccc(O)cc1` [ethylparaben], 116 °C; that for `NC(=O)c1cccnc1` [nicotinamide], 130 °C. Compound `C1CCC(C2CCCCC2)CC1` [dicyclohexyl] yielded a melting point of 4 °C. The same measure for `C[C@]12CCC(=O)C=C1CC[C@@H]1[C@@H]2C(=O)C[C@@]2(C)[C@H]1CC[C@]2(O)C(=O)CO` [cortisone]: 222 °C; for `FC(F)(F)c1ccc(Br)nc1` [2-bromo-5-(trifluoromethyl)pyridine]: 46 °C; for `Brc1cscc1Br` [3,4-dibromothiophene]: 5 °C. In turn, `O=C(O)C(S)C(S)C(=O)O` (centres undefined) [2,3-Disulfanylsuccinic acid] displayed a melting point of 197 °C.

In the case of `FC(F)(F)c1ccc2cccnc2c1` [7-(trifluoromethyl)quinoline], the melting point was 66 °C.

The melting point is the temperature of the solid-liquid transition.
